Results as given in patent publication US9609868B2, “Alkoximino-substituted anthranilic acid diamides as pesticides” (BAYER CROPSCIENCE AKTIENGESELLSCHAFT, priority 2013, dated 2017).

Key:
[1] = test system: Tetranychus urticae; assay: Tetranychus urticae - spray test, OP-resistant (TETRUR); assay type: in vivo; settings: application rate 100 g/ha, bean leaf disks
Experimental: Tetranychus urticae—Spray Test, OP-Resistant (TETRUR)
(§1) Solvent: 78.0 parts by weight of acetone • • 1.5 parts by weight of dimethylformamide
(§2) Emulsifier: 0.5 parts by weight of alkylaryl polyglycol ether
(§3) To produce a suitable active compound preparation, 1 part by weight of active compound is mixed with the stated amounts of solvent and emulsifier, and the concentrate is diluted with emulsifier-containing water to the desired concentration.
Disks of bean leaves (Phaseolus vulgaris) infested with all stages of the greenhouse red spider mite (Tetranychus urticae) are sprayed with an active compound preparation of the desired concentration.
After the desired period of time, the efficacy in % is determined. 100% means that all the spider mites have been killed; 0% means that none of the spider mites have been killed.

[2] = log P by HPLC on reversed-phase column (C18), EEC directive 79/831 Annex V.A8; assay type: physicochemical; settings: HPLC reversed-phase C18, 43° C., data refer to the E isomer
Experimental: The log P values reported in the tables and Preparation Examples above were determined in accordance with EEC directive 79/831 Annex V.A8 by HPLC (High Performance Liquid Chromatography) using a reversed-phase column (C18). Temperature 43° C. The calibration is effected with unbranched alkan-2-ones (having 3 to 16 carbon atoms), for which the log P values are known.

[3] = test system: Spodoptera frugiperda; assay: Spodoptera frugiperda - spray test (SPODFR); assay type: in vivo; settings: application rate 100 g/ha, maize leaf disks
Experimental: Spodoptera frugiperda—Spray Test (SPODFR)
as §1, §2, §3
Leaf disks of maize (Zea mays) are sprayed with an active compound preparation of the desired concentration and, after drying, populated with caterpillars of the armyworm (Spodoptera frugiperda).
After the desired period of time, the efficacy in % is determined. 100% means that all the caterpillars have been killed; 0% means that no caterpillars have been killed.

[4] = test system: Phaedon cochleariae; assay: Phaedon cochleariae - spray test (PHAECO); assay type: in vivo; settings: application rate 100 g/ha, Chinese cabbage leaf disks
Experimental: Phaedon cochleariae—Spray Test (PHAECO)
as §1, §2, §3
After the desired period of time, the efficacy in % is determined. 100% means that all the beetle larvae have been killed; 0% means that no beetle larvae have been killed.

[5] = test system: Myzus persicae; assay: Myzus persicae - spray test (MYZUPE); assay type: in vivo; settings: Chinese cabbage leaf disks
Experimental: Myzus persicae—Spray Test (MYZUPE)
Solvent: 78 parts by weight of acetone • • 1.5 parts by weight of dimethylformamide
as §2, §3
Disks of Chinese cabbage leaves (Brassica pekinensis) infested by all stages of the green peach aphid (Myzus persicae) are sprayed with an active compound preparation of the desired concentration.
After the desired period of time, the efficacy in % is determined. 100% means that all the aphids have been killed; 0% means that none of the aphids have been killed.

[6] = test system: Boophilus microplus; assay: Boophilus microplus - injection test (BOOPMI Inj); assay type: in vivo; settings: application rate 20 μg/animal, injection into engorged adult female cattle ticks
Experimental: Boophilus microplus—Injection Test (BOOPMI Inj)
(§4) Solvent: dimethyl sulfoxide
To produce a suitable preparation of active compound, 10 mg of active compound are mixed with 0.5 ml of solvent and the concentrate is diluted with solvent to the desired concentration.
1 μl of the active compound solution is injected into the abdomen of 5 engorged adult female cattle ticks (Boophilus microplus). The animals are transferred into dishes and kept in a climate-controlled room.
The activity is assessed after the desired time by laying of fertile eggs. Eggs which are not visibly fertile are stored in a climate-controlled cabinet until the larvae hatch after about 42 days. An efficacy of 100% means that none of the ticks has laid any fertile eggs; 0% means that all the eggs are fertile.

[7] = test system: Lucilia cuprina; assay: Lucilia cuprina test (LUCICU); assay type: in vivo; settings: application rate 100 ppm
Experimental: Lucilia cuprina-Test (LUCICU)
as §4
To produce a suitable preparation of active compound, 10 mg of active compound are mixed with 0.5 ml of dimethyl sulfoxide, and the concentrate is diluted with water to the desired concentration.
About 20 L1 larvae of the Australian sheep blowfly (Lucilia cuprina) are transferred into a test vessel containing minced horsemeat and the active compound preparation of the desired concentration.
After the desired time, the kill in % is determined. 100% means that all the larvae have been killed; 0% means that no larvae have been killed.

Row | SMILES | efficacy (spider mites killed) [1] | log p ([2]; Table A) | efficacy (caterpillars killed) [3] | log p ([2]; Table C) | efficacy (beetle larvae killed) [4] | efficacy (aphids killed) ([5]; application rate 100 g/ha) | efficacy (no fertile eggs laid) [6] | efficacy (kill of L1 larvae) [7] | log p ([2]; Table B) | efficacy (aphids killed) ([5]; application rate 20 g/ha)
1 | CON=Cc1cc(C)c(NC(=O)c2cc(C(F)(F)F)nn2-c2ncccc2Cl)c(C(=O)N(C)NC(=O)Oc2ccccc2)c1 [A-26] | 90% | 3.72 | 100% | – | – | – | – | – | – | –
2 | CNC(=O)c1cc(C=NOC)cc(C)c1NC(=O)c1cc(CF)nn1-c1ncccc1Cl [C-45] | 100% | – | 100% | 2.14 | 100% | 100% | – | – | – | –
3 | CNC(=O)c1cc(C=NOC)cc(C)c1NC(=O)c1cc(OCC(F)F)nn1-c1ncccc1Cl [C-20] | – | – | 100% | 2.57 | 83% | 90% | 100% | 100% | – | –
4 | CON=Cc1cc(C)c(NC(=O)c2cc(C(F)F)nn2-c2ncccc2Cl)c(C(=O)NC2CC2)c1 [C-34] | – | – | 100% | 2.72 | 100% | 100% | 100% | 100% | – | –
5 | COCC(C)NC(=O)c1cc(C=NOC)cc(C)c1NC(=O)c1cc(OC)nn1-c1ncccc1Cl (stereo not shown) [C-41] | 90% | – | 100% | 2.51 | – | 100% | – | – | – | –
6 | CON=Cc1cc(C)c(NC(=O)c2cc(C(F)(F)F)nn2-c2ncccc2Cl)c(C(=O)NNC(=O)OC)c1 [A-04] | – | 2.65 | 100% | – | 100% | 100% | 100% | 100% | – | –
7 | CCNC(=O)c1cc(C=NOC)cc(C)c1NC(=O)c1cc(OCC(F)F)nn1-c1ncccc1Cl [C-46] | – | – | 100% | 2.81 | – | 100% | 100% | 100% | – | –
8 | CCOc1cc(C(=O)Nc2c(C)cc(C=NOC)cc2C(=O)NC)n(-c2ncccc2Cl)n1 [C-10] | – | – | 100% | 2.48 | 100% | 100% | – | – | – | –
9 | CON=Cc1cc(C)c(NC(=O)c2cc(CF)nn2-c2ncccc2Cl)c(C(=O)NNC(=O)OC)c1 (mixture of isomers) [A-44] | – | 2.02 | 100% | – | 100% | 90% | – | – | – | –
10 | CON=Cc1cc(C)c(NC(=O)c2cc(C(F)F)nn2-c2ncccc2Cl)c(C(=O)NC2COC2)c1 (mixture of isomers) [B-11] | – | – | 100% | – | 100% | 100% | – | – | 2.31 | –
11 | CON=Cc1cc(C)c(NC(=O)c2cc(C(F)F)nn2-c2ncccc2Cl)c(C(=O)NN(C)C(=O)OC)c1 (mixture of isomers) [A-47] | – | 2.21 | 100% | – | 100% | 90% | – | – | – | –
12 | COCCNC(=O)c1cc(C=NOC)cc(C)c1NC(=O)c1cc(CF)nn1-c1ncccc1Cl [C-56] | – | – | 100% | 2.27 | 100% | – | – | – | – | 90%
13 | CON=Cc1cc(C)c(NC(=O)c2cc(C(F)(F)F)nn2-c2ncccc2Cl)c(C(=O)NC2C[S+]([O-])C2)c1 (mixture of isomers) [B-05] | – | – | 100% | – | 100% | 90% | – | – | 2.51 | –
14 | CON=Cc1cc(C)c(NC(=O)c2cc(OCC(F)F)nn2-c2ncccc2Cl)c(C(=O)NC2CC2)c1 [C-17] | – | – | 100% | 2.91 | 100% | 90% | – | – | – | –
15 | C#CCNC(=O)c1cc(C=NOC)cc(C)c1NC(=O)c1cc(OC)nn1-c1ncccc1Cl [C-48] | – | – | 100% | 2.40 | 100% | 100% | – | – | – | –
16 | C=CCOC(=O)NNC(=O)c1cc(C=NOC)cc(C)c1NC(=O)c1cc(C(F)(F)F)nn1-c1ncccc1Cl [A-21] | – | 3.04 | 100% | – | 100% | 90% | – | – | – | –
17 | CON=Cc1cc(C)c(NC(=O)c2cc(OC)nn2-c2ncccc2Cl)c(C(=O)NC(C)(C)C)c1 [C-26] | – | – | 100% | 3.06 | 100% | 100% | – | – | – | –
18 | CON=Cc1cc(C)c(NC(=O)c2cc(CF)nn2-c2ncccc2Cl)c(C(=O)NC(C)C)c1 [C-49] | – | – | 100% | 2.65 | 100% | 90% | – | – | – | –
19 | CON=Cc1cc(C)c(NC(=O)c2cc(C(F)(F)F)nn2-c2ncccc2Cl)c(C(=O)NC(C)CSC)c1 (stereo not shown) [C-05] | – | – | 100% | 3.72 | 100% | 100% | – | – | – | –
20 | CCOc1cc(C(=O)Nc2c(C)cc(C=NOC)cc2C(=O)NNC(=O)OC)n(-c2ncccc2Cl)n1 (mixture of isomers) [A-34] | – | 2.26 | 100% | – | 100% | 90% | – | – | – | –
21 | CON=Cc1cc(C)c(NC(=O)c2cc(C(F)(F)F)nn2-c2ncccc2Cl)c(C(=O)NC2CSC2)c1 (mixture of isomers) [B-06] | – | – | 100% | – | 100% | 90% | – | – | 3.46 | –
22 | CCNC(=O)c1cc(C=NOC)cc(C)c1NC(=O)c1cc(CF)nn1-c1ncccc1Cl [C-53] | – | – | 100% | 2.39 | 100% | 90% | – | – | – | –
23 | CON=Cc1cc(C)c(NC(=O)c2cc(OC)nn2-c2ncccc2Cl)c(C(=O)NC(C)C2CC2)c1 (stereo not shown) [C-25] | – | – | 100% | 3.02 | 100% | 100% | – | – | – | –
24 | CON=Cc1cc(C)c(NC(=O)c2cc(OC)nn2-c2ncccc2Cl)c(C(=O)NC2COC2)c1 (mixture of isomers) [B-10] | – | – | 100% | – | 100% | 100% | – | – | 2.04 | –
25 | CON=Cc1cc(C)c(NC(=O)c2cc(C(F)F)nn2-c2ncccc2Cl)c(C(=O)NC(C)(C)C)c1 [C-35] | – | – | 100% | 3.34 | 100% | 90% | – | – | – | –
26 | C#CCNC(=O)c1cc(C=NOC)cc(C)c1NC(=O)c1cc(CF)nn1-c1ncccc1Cl [C-57] | – | – | 100% | 2.38 | 100% | 90% | – | – | – | –
27 | C#CCNC(=O)c1cc(C=NOC)cc(C)c1NC(=O)c1cc(C(F)F)nn1-c1ncccc1Cl [C-62] | – | – | 100% | 2.69 | 100% | 90% | – | – | – | –
